The target in the experiment is T1, human Glu-plasminogen (Homo sapiens, UniProt P00747).
T1 construct: human Glu-plasminogen; purchased Chromogenix, Italy
T1 sequence (P00747 20-810 limits assumed): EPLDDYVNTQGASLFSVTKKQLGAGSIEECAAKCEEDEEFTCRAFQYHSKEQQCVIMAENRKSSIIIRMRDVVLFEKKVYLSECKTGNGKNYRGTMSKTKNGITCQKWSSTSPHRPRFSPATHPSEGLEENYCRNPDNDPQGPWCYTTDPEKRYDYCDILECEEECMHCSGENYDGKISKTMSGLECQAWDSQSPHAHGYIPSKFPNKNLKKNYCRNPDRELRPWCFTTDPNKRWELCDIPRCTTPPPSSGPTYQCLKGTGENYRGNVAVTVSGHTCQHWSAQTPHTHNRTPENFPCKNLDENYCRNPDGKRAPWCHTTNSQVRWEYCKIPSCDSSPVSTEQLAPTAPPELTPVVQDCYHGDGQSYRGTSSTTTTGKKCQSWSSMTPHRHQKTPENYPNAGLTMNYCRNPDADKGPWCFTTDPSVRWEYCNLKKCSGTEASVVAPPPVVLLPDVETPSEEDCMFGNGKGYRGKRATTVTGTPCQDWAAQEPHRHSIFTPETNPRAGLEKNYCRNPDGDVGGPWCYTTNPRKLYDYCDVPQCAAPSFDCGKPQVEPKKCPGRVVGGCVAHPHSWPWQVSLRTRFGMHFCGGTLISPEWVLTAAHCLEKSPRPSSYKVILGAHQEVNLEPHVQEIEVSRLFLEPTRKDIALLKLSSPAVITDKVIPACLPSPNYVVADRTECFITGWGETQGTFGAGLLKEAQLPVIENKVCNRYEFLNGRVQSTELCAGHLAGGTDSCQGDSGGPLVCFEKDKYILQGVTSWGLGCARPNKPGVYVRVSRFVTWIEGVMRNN
The experiment is described as follows: Clot-lysis buffer assay. The experiment is classed as biochemical. On the procedure:
The assay method used for evaluating biological activity of the compounds according to the invention was Clot-lysis buffer assay.
Tested substance were added to the reaction mixture in 10% DMSO. Reaction was started by the addition of thrombin.
Measured according to the Clot-lysis buffer assay described above.
Molecule `CC(C)(C)c1ccc(C[C@H]2C[C@@H](c3cc(=O)[nH]o3)CCN2)cc1` [Example 12, 5-((2R,4S)-2-(4-tert-Butylbenzyl)piperidin-4-yl)isoxazol-3(2H)-one] registered an IC50 of 2.25 µM.

As for `O=c1cc([C@H]2CCN[C@@H](CC3CCC(F)(F)CC3)C2)o[nH]1` [Example 89, 5-((2S,4S)-2-((4,4-Difluorocyclohexyl)methyl)piperidin-4-yl)isoxazol-3(2H)-one], inhibition was half-maximal at 1.5 µM (IC50).

The molecule `Cc1cc([C@@H]2C[C@H](c3cc(=O)[nH]o3)CCN2)ccc1C(F)(F)F` [Example 68, 5-((2S,4R)-2-(3-Methyl-4-(trifluoromethyl)phenyl)piperidin-4-yl)isoxazol-3(2H)-one] displayed an IC50 of 81.1 µM. To `CC(C)(C)c1cc(C[C@H]2C[C@@H](c3cc(=O)[nH]o3)CCN2)cc(C(C)(C)C)c1` [Example 146, 5-((2R,4S)-2-(3,5-Di-tert-butylbenzyl)piperidin-4-yl)isoxazol-3(2H)-one] belongs 6.6 µM; to `O=c1cc([C@@H]2CCN[C@@H](Cc3cc(F)ccc3F)C2)o[nH]1` (relative stereo) [Example 126, 5-(Trans-2-(2,5-difluorobenzyl)piperidin-4-yl)isoxazol-3(2H)-one], 3.6 µM; to `O=c1cc([C@H]2CCN[C@@H](Cc3cc(F)cc(F)c3)C2)o[nH]1` [Example 130, 5-((2R,4S)-2-(3,5-Difluorobenzyl)piperidin-4-yl)isoxazol-3(2H)-one], 1.1 µM.

In the case of `O=c1cc([C@H]2CCN[C@@H](c3ccc(C(F)(F)F)nc3)C2)o[nH]1` [Example 40, 5-((2R,4S)-2-(6-(Trifluoromethyl)pyridin-3-yl)piperidin-4-yl)isoxazol-3(2H)-one], the IC50 turned out to be 1.5 µM.

Regarding `O=c1cc([C@H]2CCN[C@@H](c3cc(F)c(F)c(F)c3)C2)o[nH]1` [Example 60, 5-((2R,4S)-2-(3,4,5-Trifluorophenyl)piperidin-4-yl)isoxazol-3(2H)-one], the IC50 amounted to 1.9 µM. In turn, `O=c1cc([C@H]2CCN[C@@H](Cc3c(F)cccc3F)C2)o[nH]1` [Example 127, 5-((2R,4S)-2-(2,6-Difluorobenzyl)piperidin-4-yl)isoxazol-3(2H)-one] had an IC50 of 1.4 µM. `O=c1cc([C@@H]2CCN[C@H](Cc3cccc(C(F)(F)F)c3)C2)o[nH]1` [Example 108, 5-((2S,4R)-2-(3-(Trifluoromethyl)benzyl)piperidin-4-yl)isoxazol-3(2H)-one]: the IC50 stood at 70.5 µM. `O=c1cc([C@H]2CCN[C@@H](Cc3cc(F)c(F)c(F)c3)C2)o[nH]1` [Example 143, 5-((2R,4S)-2-(3,4,5-Trifluorobenzyl)piperidin-4-yl)isoxazol-3(2H)-one] yielded a half-maximal inhibitory concentration (IC50) of 0.9 µM. For the molecule `O=c1cc([C@H]2CCN[C@@H](CCc3ccc(F)cc3)C2)o[nH]1` [Example 92, 5-((2S,4S)-2-(4-Fluorophenethyl)piperidin-4-yl)isoxazol-3(2H)-one], the IC50 was found to be 1.1 µM. To `O=c1cc([C@@H]2CCN[C@@H](c3ccc(F)c(F)c3)C2)o[nH]1` (relative stereo) [Example 24, 5-(Trans-2-(3,4-difluorophenyl)piperidin-4-yl)isoxazol-3(2H)-one] belongs 42.8 µM.

In general, IC50 refers to the concentration needed to halve the response being measured. A lower IC50 goes with inhibition by little substance.

Values taken from patent US8415378B2, “Isoxazol-3(2H)-one analogs as therapeutic agents” (AstraZeneca AB, priority 2009, dated 2013).
